{
  "source": "patent US8563548B2",
  "about": "“Methylene furanone derivatives and use of said derivatives as a photoprotecting or antioxidant or depigmentation agent in cosmetic or dermatological compositions” (Pierre Fabre Dermo-Cosmetique, priority 2008, dated 2013)",
  "key": {"[1]": {"test": "Antioxidant capacity by trapping the superoxide anion (photochemiluminescence with luminol)", "type": "biochemical", "details": "sample needed for activity equivalent to 1 μg Trolox; for ACL μg of sample for 1 μg of Trolox: methylene furanone samples; for μg of sample for 1 μg of Trolox: reference products", "method": "The antioxidant capacity of 10 molecules was measured by trapping the superoxide anion: 5d, 9a, 5b, 5a, 5e, 4d, 5f, 5g, 5h, 5j.\nThe method consists in generating free radicals by a photochemical signal. Oxidation intensity is 1000 times higher than that obtained in normal conditions.\nThus, the superoxide radical (O2—) is generated by a photochemical reaction: L+hv(UV)+O2→L*O2→L^++O2—\nDetection is done by chemiluminescence. It enables the evaluation of water-soluble and fat-soluble antioxidant molecules or extracts.\nPart of the superoxide anions are quenched by antioxidants. The remaining free radicals are quantified by chemiluminescence. L^++O2^−→N2+AP*^2−→AP^2−+hv (luminescence)\nThe results are expressed respectively in equivalent quantity of vitamin C or Trolox (6-hydroxy-2,5,7,8-tetramethylchroman-2-carboxylic acid). Sensitivity is on the order of a nanomole.\nThe analysis of the results depends on two criteria: shape of the curve and numerical value given by the software."}, "[2]": {"test": "UV absorption characteristics (photoprotecting capacity)", "type": "physicochemical", "details": "for region of UV absorption / maximum absorption: UVA, UVB, long UVA (340-400 nm); for critical wavelength (λc) / UVA/UVB ratio (R): UV absorption spectrum", "text": "The methylene furanone derivatives of general formula (I) of the present invention were thus evaluated in order to determine their photoprotecting capacity by determination of their UV absorption characteristics: molar extinction coefficient ε, critical wavelength (λc) and UVA/UVB ratio.\nBy gathering all this information and by comparing the shape of the UV absorption spectra, these molecules can be classified in three categories: […]"}, "[3]": {"test": "Photostability under Suntest irradiation (10 MED)", "type": "physicochemical", "details": "irradiated with 10 MED, UV spectra before and after irradiation; for Photostability in solution: in solution in ethanol; for Photostability powder: powder form", "text": "For this study it was decided to irradiate samples, in powder form or in solution in ethanol, with 10 MED (minimal erythema dose: minimum amount of solar radiation causing the appearance of sunburn). The evaluation of degradation is estimated by the shape of the UV absorption spectra before and after irradiation.\nEvaluation of Stability of Methylene Furanone Derivatives Irradiated in Suntest."}, "[4]": {"test_system": "Tyrosinase", "test": "Tyrosinase monophenol monooxygenase (MPMO) inhibition test", "type": "biochemical", "parameters": "concentration or dose not given beside the values", "details": "for a 50 quantity; substrate L-tyrosine, compared to maximum activity without inhibitor", "method": "Tyrosinase is a limiting enzyme in melanogenesis. It belongs to the family of oxidoreductases. […] It is synthesised in melanocytes. It is activated during its migration towards keratinocytes via melanosomes. It transforms tyrosine into DOPA and then dopaquinone, which eventually leads to polymerization and pigment production.\nThe monophenol monooxygenase function is measured in this test. Tyrosinase activity (MPMO in the strict sense) is measured.\nThe substrate: L-tyrosine is transformed into L-DOPA. The enzymatic reaction is stopped at this stage. The DOPA produced is determined by an external calibration (0.005 mM to 0.1 mM). The final result is a percentage of inhibition compared to maximum activity without inhibitor or extract."}},
  "note": "“Also recorded” adds a separate entry of the source.",
  "data": [
    {"smiles": "COc1cc(C(=C2C=CC(=O)O2)c2cc(OC)c(OC)c(OC)c2)cc(OC)c1OC", "note": "[5h, 5-(bis(3,4,5-trimethoxyphenyl)methylene)furan-2-(5H)-one]", "values": [
      {"measurement": "ACL μg of sample for 1 μg of Trolox", "setting": "[1]", "result": 30, "unit": "µg"}
    ]},
    {"smiles": "O=C(O)CCCC[C@@H]1CCSS1", "note": "(racemic) [Lipoic acid, reference compound]", "values": [
      {"measurement": "μg of sample for 1 μg of Trolox", "setting": "[1]", "result": "NEGATIVE"}
    ]},
    {"smiles": "O=C1C=C(c2ccccc2)/C(=C/c2ccccc2)O1", "note": "[4a, (Z)-4-Phenyl-5-(phenylmethylene)furan-2(5H)-one]", "values": [
      {"measurement": "region of UV absorption / maximum absorption", "setting": "[2]", "result": "absorb in long UVA wavelengths"}
    ]},
    {"smiles": "O=C1C=CC(=C(c2ccccc2)c2ccccc2)O1", "note": "[5a, 5-(Diphenylmethylene)furan-2(5H)-one]", "values": [
      {"measurement": "critical wavelength (λc)", "setting": "[2]", "result": 367, "unit": "nm"},
      {"measurement": "Photostability in solution", "setting": "[3]", "result": "stable"},
      {"measurement": "Photostability powder", "setting": "[3]", "result": "stable"},
      {"measurement": "ACL μg of sample for 1 μg of Trolox", "setting": "[1]", "result": 43.0, "unit": "µg"}
    ]},
    {"smiles": "O=C1C=C/C(=C(\\c2ccccc2)c2ccsc2)O1", "note": "[9a, (Z)-5-(phenylthiophene-3-ylmethylene)furan-2-(5H)-one]", "values": [
      {"measurement": "Photostability in solution", "setting": "[3]", "result": "stable"},
      {"measurement": "Photostability powder", "setting": "[3]", "result": "stable"},
      {"measurement": "ACL μg of sample for 1 μg of Trolox", "setting": "[1]", "result": 21.6, "unit": "µg"}
    ]},
    {"smiles": "O=C1C=C(Br)/C(=C/c2ccsc2)O1", "note": "[6b, (Z)-4-Bromo-5-(thiophene-3-ylmethylene)furan-2-(5H)-one]", "values": [
      {"measurement": "critical wavelength (λc)", "setting": "[2]", "result": 355, "unit": "nm"}
    ]},
    {"smiles": "O=C1C=CC(=C(c2ccccc2F)c2ccccc2F)O1", "note": "[5f, 5-bis((2-fluorophenyl)methylene)furan-2-(5H)-one]", "values": [
      {"measurement": "Photostability in solution", "setting": "[3]", "result": "stable"},
      {"measurement": "Photostability powder", "setting": "[3]", "result": "stable"},
      {"measurement": "ACL μg of sample for 1 μg of Trolox", "setting": "[1]", "result": 88.3, "unit": "µg"}
    ]},
    {"smiles": "O=C1C=C(c2ccccc2)/C(=C/c2ccsc2)O1", "note": "[8b, 4-Phenyl-(Z)-5-(thiophene-3-ylmethylene)furan-2-(5H)-one]", "values": [
      {"measurement": "region of UV absorption / maximum absorption", "setting": "[2]", "result": "absorb in long UVA wavelengths"}
    ]},
    {"smiles": "CC(=O)Oc1c(C)c(C)c2c(c1C)CCC(C)(CCC[C@H](C)CCC[C@H](C)CCCC(C)C)O2", "note": "(stereo partly drawn) [α-tocopherol-acetate, reference compound]", "values": [
      {"measurement": "μg of sample for 1 μg of Trolox", "setting": "[1]", "result": 140, "unit": "µg"}
    ]},
    {"smiles": "O=C1C=CC(=C(c2ccc3ccccc3c2)c2ccc3ccccc3c2)O1", "note": "[5c, 5-(Dinaphthalene-2-ylmethylene)furan-2-(5H)-one]", "values": [
      {"measurement": "region of UV absorption / maximum absorption", "setting": "[2]", "result": "absorb in long UVA wavelengths"}
    ]},
    {"smiles": "COc1ccc(/C=C2\\OC(=O)C=C2c2ccc(OC)c(OC)c2)cc1OC", "note": "[4d]", "values": [
      {"measurement": "Photostability in solution", "setting": "[3]", "result": "moderately stable"},
      {"measurement": "Photostability powder", "setting": "[3]", "result": "stable"},
      {"measurement": "ACL μg of sample for 1 μg of Trolox", "setting": "[1]", "result": 50.2, "unit": "µg"}
    ]},
    {"smiles": "O=C1C=C(c2ccsc2)/C(=C/c2ccccc2)O1", "note": "[8a, (Z)-5-(Phenylmethylene)-4-(thiophene-3-yl)furan-2-(5H)-one]", "values": [
      {"measurement": "region of UV absorption / maximum absorption", "setting": "[2]", "result": "absorb in long UVA wavelengths"}
    ]},
    {"smiles": "O=C1C=CC(=C(c2ccc(O)c(O)c2)c2ccc(O)c(O)c2)O1", "note": "[5g, 5-(bis(3,4-dihydroxyphenyl)methylene)furan-2-(5H)-one]", "values": [
      {"measurement": "ACL μg of sample for 1 μg of Trolox", "setting": "[1]", "result": 0.03, "unit": "µg"},
      {"measurement": "inhibition of MPMO enzyme activity", "setting": "[4]", "result": 65.93, "unit": "%"}
    ]},
    {"smiles": "COC1=C(OC)C(=O)C(CCCCCCCCCCO)=C(C)C1=O", "note": "[Idebenone, reference compound]", "values": [
      {"measurement": "μg of sample for 1 μg of Trolox", "setting": "[1]", "result": 10.10, "unit": "µg"}
    ]},
    {"smiles": "CC(C)(C)OC(=O)Nc1ccc(C(=C2C=CC(=O)O2)c2ccc(NC(=O)OC(C)(C)C)cc2)cc1", "note": "[5e]", "values": [
      {"measurement": "Photostability in solution", "setting": "[3]", "result": "stable"},
      {"measurement": "Photostability powder", "setting": "[3]", "result": "stable"},
      {"measurement": "ACL μg of sample for 1 μg of Trolox", "setting": "[1]", "result": 46.3, "unit": "µg"}
    ]},
    {"smiles": "O=C1C=CC(=C(c2ccsc2)c2ccsc2)O1", "note": "[5b, 5-(Dithiophene-3-ylmethylene)furan-2-(5H)-one]", "values": [
      {"measurement": "Photostability in solution", "setting": "[3]", "result": "stable"},
      {"measurement": "Photostability powder", "setting": "[3]", "result": "stable"},
      {"measurement": "ACL μg of sample for 1 μg of Trolox", "setting": "[1]", "result": 28.0, "unit": "µg"}
    ]},
    {"smiles": "O=C1C=C(Br)/C(=C/c2ccccc2)O1", "note": "[6a, (Z)-4-Bromo-5-(phenylmethylene)furan-2-(5H)-one]", "values": [
      {"measurement": "region of UV absorption / maximum absorption", "setting": "[2]", "result": "absorb in long UVA wavelengths"}
    ]},
    {"smiles": "COc1ccc(O)c(C(C)(C)C)c1", "note": "[Butylhydroxyanisole, reference compound]", "values": [
      {"measurement": "μg of sample for 1 μg of Trolox", "setting": "[1]", "result": 2.650, "unit": "µg"}
    ]},
    {"smiles": "COc1ccc(C(=C2C=CC(=O)O2)c2ccc(OC)c(OC)c2)cc1OC", "note": "[5d, 5-(bis(3,4-Dimethoxyphenyl)methylene)furan-2-(5H)-one]", "values": [
      {"measurement": "Photostability in solution", "setting": "[3]", "result": "stable"},
      {"measurement": "Photostability powder", "setting": "[3]", "result": "completely unstable; also recorded: not stable"},
      {"measurement": "ACL μg of sample for 1 μg of Trolox", "setting": "[1]", "result": 12.7, "unit": "µg"}
    ]},
    {"smiles": "O=C1O[C@H]([C@@H](O)CO)C(O)=C1O", "note": "[Vitamin C, ascorbic acid, reference compound]", "values": [
      {"measurement": "μg of sample for 1 μg of Trolox", "setting": "[1]", "result": 0.451, "unit": "µg"}
    ]},
    {"smiles": "O=C1C=C(c2ccccc2F)/C(=C/c2ccccc2F)O1", "note": "[4f, (Z)-4-(2-Fluorophenyl)-(Z)-5-(2-fluorophenylmethylene)furan-2(5H)-one]", "values": [
      {"measurement": "region of UV absorption / maximum absorption", "setting": "[2]", "result": "absorb in long UVA wavelengths"}
    ]},
    {"smiles": "Cc1c(C)c2c(c(C)c1O)CCC(C)(C(=O)O)O2", "note": "(stereo not drawn) [Trolox, 6-hydroxy-2,5,7,8-tetramethylchroman-2-carboxylic acid, reference compound]", "values": [
      {"measurement": "μg of sample for 1 μg of Trolox", "setting": "[1]", "result": 1.067, "unit": "µg"}
    ]},
    {"smiles": "O=C1C=CC(=C(c2cc(O)c(O)c(O)c2)c2cc(O)c(O)c(O)c2)O1", "note": "[5i, 5-(bis(3,4,5-Trihydroxyphenyl)methylene)furan-2-(5H)-one]", "values": [
      {"measurement": "ACL μg of sample for 1 μg of Trolox", "setting": "[1]", "result": 1.5, "unit": "µg"}
    ]},
    {"smiles": "O=C1C=C(c2ccsc2)/C(=C/c2ccsc2)O1", "note": "[4b, (Z)-4-(3-Thiophene)-5-(3-thiophenylmethylene)furan-2(5H)one]", "values": [
      {"measurement": "UVA/UVB ratio (R)", "setting": "[2]", "result": 1.9},
      {"measurement": "region of UV absorption / maximum absorption", "setting": "[2]", "result": "maximum is in UVB"}
    ]},
    {"smiles": "N[C@@H](CS)C(=O)O", "note": "[Cysteine, reference compound]", "values": [
      {"measurement": "μg of sample for 1 μg of Trolox", "setting": "[1]", "result": 698, "unit": "µg"}
    ]},
    {"smiles": "O=C1C=C(c2ccc3ccccc3c2)/C(=C/c2ccc3ccccc3c2)O1", "note": "[4c, (Z)-4-(2-naphthalene)-5-(2-naphthalenephenylmethylene)furan-2(5H)-one]", "values": [
      {"measurement": "molar extinction coefficient ε", "setting": "[2]; UV absorption", "result": "22,000 l.mol^−1.cm^−1"},
      {"measurement": "UVA/UVB ratio (R)", "setting": "[2]", "result": 3.2},
      {"measurement": "region of UV absorption / maximum absorption", "setting": "[2]", "result": "maximum is in UVB"}
    ]}
  ]
}
